The results in this text go back to patent publication US10150737B2, “Compounds for controlling arthropods” (priority 2013, dated 2018).

The structures appear in SMILES notation.

The nature of data set [1]: logP determination by HPLC on a reversed-phase column (C18). Format: physicochemical. The following applies: for logP^a): HPLC-MS method a); for log P: HPLC-MS.
The test system of data set [2] is Rhipicephalus sanguineus. The experiment in a line: Rhipicephalus sanguineus - in vitro contact tests with adult brown dog ticks. The format is in vivo. The settings on record: after 48 h, ticks dead or moribund. In outline: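 Efficacy, scored after 48 h, is the % of adult ticks dead or moribund, i.e. unable to climb away on a 45-50° C hotplate within 5 min. Tubes held 5-10 ticks in the dark at room temperature, on an acetone-applied coating of 5 μg/cm^2 (900 ppm solution).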

Data set [3] has as its system Ctenocephalides felis. The data set can be described thus: Ctenocephalides felis - in vitro contact tests with adult cat fleas. Format: in vivo. The settings on record: application rate 5 μg/cm2 (=500 g/ha); after 48 h; fleas dead or moribund. In outline: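 Efficacy, as percentage of fleas dead or moribund, was scored at 48 h by knocking fleas to the tube base. Exposure was by contact with a dried acetone film of compound at 5 μg/cm^2 area dose; 5–10 adults per tube, room temperature, ambient humidity.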

The subject of data set [4] is Amblyomma hebraeum. The data set can be described thus: Amblyomma hebaraeum test (tick nymphs, immersion). The format is in vivo. The following applies: application rate 100 ppm; tick nymphs immersed one minute; after 42 days. The method, then: Solvent: dimethyl sulphoxide
To produce an appropriate active ingredient formulation, 10 mg of active ingredient are mixed with 0.5 ml of dimethyl sulphoxide, and the concentrate is diluted with water to the desired concentration.
Tick nymphs (Amblyomma hebraeum) are placed into perforated plastic beakers and immersed in the desired concentration for one minute. The ticks are transferred on filter paper into a Petri dish and stored in a climate-controlled cabinet.
After 42 days, the kill in % is determined. 100% means that all of the ticks have been killed; 0% means that none of the ticks have been killed.

The subject of data set [5] is Boophilus microplus. The experiment in a line: Boophilus microplus - injection test. Format: in vivo. The settings on record: application rate 20 μg/animal; injection into engorged adult female ticks; after 7 days. In outline:
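Five engorged adult female cattle ticks each received a 1 μl abdominal injection of compound solution in dimethyl sulphoxide. Fertile egg laying was assessed at 7 days, with doubtful eggs incubated about 42 days until hatch. 0% efficacy means all eggs fertile.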

The subject of data set [6] is Boophilus microplus Parkhurst strain, SP-resistant. The data set can be described thus: Boophilus microplus - dip test. The settings on record: application rate 100 ppm; dip of engorged adult female ticks; after 7 days. Format: in vivo. The gist of the method:
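Compound dissolved in DMSO, diluted with water, and used to fully wet groups of 8-10 engorged female cattle ticks (SP-resistant Parkhurst strain). Fertile egg laying assessed at 7 days, doubtful eggs held ~42 days until hatch; 0% means all eggs fertile.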

The subject of data set [7] is Ctenocephalides felis. The experiment in a line: Ctenocephalides felis - oral test. The format is in vivo. The settings on record: application rate 100 ppm in citrated cattle blood; after 2 days. The gist of the method: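 Roughly 20 unfed adult C. felis imbibe compound-dosed citrated cattle blood (DMSO formulation) across parafilm from a cylinder above their gauze chamber; percentage mortality recorded at day 2.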

Data set [8] concerns Lucilia cuprina. The experiment in a line: Lucilia cuprina test. Format: in vivo. The following applies: application rate 100 ppm; L1 larvae; after 2 days. The gist of the method: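 Mortality (%) of first-instar blowfly larvae, about 20 per vessel, recorded 2 days after exposure to compound-treated minced horsemeat. Compound dissolved in dimethyl sulphoxide, then water-diluted to the desired concentration.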

Data set [9] has as its system Musca domestica. The data set can be described thus: Musca domestica test. The format is in vivo. The settings on record: application rate 100 ppm; adult houseflies; after 2 days. In outline: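 Water-diluted DMSO stock of compound, mixed onto a sugar-treated sponge, served as the sole exposure route for ten adult houseflies. Kill percentage scored at 2 days.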
For data set [10], the system named is Phaedon cochleariae. The data set can be described thus: Phaedon cochleariae - spray test. Format: in vivo. The following applies: larvae on Chinese cabbage leaf discs, after 7 days. The gist of the method: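 Mortality of mustard beetle larvae was scored as % at day 7 on Brassica pekinensis leaf discs. Discs had been treated by spraying at the desired concentration, using an acetone/dimethylformamide solution diluted in water with 1000 ppm alkylaryl polyglycol ether, and dried before larvae were added.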

Data set [11] concerns Spodoptera frugiperda. The experiment in a line: Spodoptera frugiperda - spray test. Format: in vivo. The following applies: caterpillars on maize leaf discs, after 7 days. The gist of the method:
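Percent mortality of Spodoptera frugiperda caterpillars scored 7 days after placing them on dried maize leaf discs sprayed at the desired concentration. Spray formulation: compound dissolved in acetone/dimethylformamide, made up with water containing 1000 ppm emulsifier.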

The subject of data set [12] is Tetranychus urticae. The experiment in a line: Tetranychus urticae - spray test, OP-resistant. The format is in vivo. The following applies: bean leaf discs, after 6 days. In outline:
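Mortality (%) read on day 6 after spraying Phaseolus vulgaris leaf discs carrying all mite stages with formulations at the desired concentration. Formulation: active ingredient in acetone plus dimethylformamide, made up with emulsifier-containing water (1000 ppm alkylaryl polyglycol ether).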

The test system of data set [13] is Myzus persicae. The experiment in a line: Myzus persicae - spray test. Format: in vivo. The following applies: Chinese cabbage leaf discs, after 6 days. The gist of the method: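 Mortality of the green peach aphid, as % killed, was read 6 days after spraying infested Brassica pekinensis leaf discs. Compound formulated in acetone/dimethylformamide and made up with emulsifier-containing (1000 ppm) water.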

Setting [14] is: reversed-phase column (C18), Table I-T3.

Turning to `Cc1cc(C(F)(C(F)(F)F)C(F)(F)F)cc(C)c1-n1cc(-c2ccc(Cl)c(C(=O)NC3CC3)c2)cn1` [I-T3-1], the “logP^a)” value in [1] and in data set [1] (setting [14]) was 4.4 in each case. In addition, the efficacy in data set [2] (application rate 5 μg/cm2), in data set [3], in [10] (application rate 100 g/ha), in data set [11] (application rate 100 g/ha) and in [12] (application rate 100 g/ha) was 100% throughout. In addition, the “efficacy (kill)” value in data set [4], in data set [7], in [8] and in [9] was 100% each time. Moreover, the “efficacy (laying of fertile eggs)” value in data set [5] and in data set [6] was 100% each time.
Regarding `N#CC1(NC(=O)c2cc(-c3cnn(-c4c(Br)cc(C(F)(C(F)(F)F)C(F)(F)F)cc4C(F)(F)F)c3)ccc2Cl)CC1` [I-T3-155], the “logP^a)” value in data set [1] (reversed-phase column (C18)) is 4.4. In addition, the log P – broadly, a log measure of how a compound divides between an organic and an aqueous phase – in data set [1] (setting [14]) is 4.4. Also, the efficacy in data set [2] (application rate 5 μg/cm2), in [3], in data set [10] (application rate 100 g/ha), in data set [11] (application rate 100 g/ha) and in [12] (application rate 100 g/ha) was 100% each time. For the same compound, the “efficacy (kill)” value in data set [4], in data set [7], in data set [8] and in data set [9] was 100% each time. Moreover, the “efficacy (laying of fertile eggs)” value in [5] and in data set [6] was 100% each time.
On to `Cc1cc(C(F)(C(F)(F)F)C(F)(F)F)cc(C)c1-c1cnn(-c2cnc(Cl)c(C(=O)NC3(C#N)CC3)c2)c1` [I-T4-4], for which, in [1] (HPLC, C18 reversed phase, acetonitrile/water with formic acid, EEC Directive 79/831 Annex V.A8), the lipophilicity (logP) (commonly a log measure of how a compound divides between an organic and an aqueous phase) worked out at 4.3. Besides, the efficacy in data set [2] (application rate 5 μg/cm2), in data set [3], in [10] (application rate 100 g/ha), in [11] (application rate 100 g/ha) and in data set [12] (application rate 100 g/ha) was 100% each time. Besides, the “efficacy (kill)” value in [4], in data set [7] and in data set [8] was 100% throughout. For the same compound, the “efficacy (laying of fertile eggs)” value in data set [5] and in [6] was 100% in each case.
On to `CCc1cc(C(F)(C(F)(F)F)C(F)(F)F)ccc1-n1cc(-c2cnc(Cl)c(C(=O)NC3(C#N)CC3)c2)cn1` [I-T3-105], for which the “logP^a)” value in data set [1] (reversed-phase column (C18)) was determined as 4.1. For the same compound, the log partition coefficient (log P) in [1] (setting [14]) was found to be 4.1. Besides, the efficacy in data set [2] (application rate 0.2 μg/cm2) is on record as 100%; in [13] (application rate 500 g/ha) it was 90%; in data set [10] (application rate 500 g/ha), 100%; in data set [11] (application rate 500 g/ha), 100%; in [12] (application rate 500 g/ha), 90%. In addition, the “efficacy (kill)” value turned out to be 85% in data set [4], 100% in data set [7], 100% in [8] and 80% in data set [9]. In [5], the “efficacy (laying of fertile eggs)” value came to 100%.
In the case of `CCc1cc(C(F)(C(F)(F)F)C(F)(F)F)ccc1-n1cc(-c2cnc(Cl)c(C(=O)NC3CC3)c2)cn1` [I-T3-104], the “logP^a)” value in [1] (reversed-phase column (C18)) is reported as 4.2. The log partition coefficient (log P) in [1] (setting [14]) was found to be 4.2. The efficacy in [2] (application rate 5 μg/cm2) stood at 100%; in [10] (application rate 500 g/ha) it was 100%; in data set [11] (application rate 500 g/ha), 100%; in data set [12] (application rate 500 g/ha) it was 90%. Besides, the “efficacy (kill)” value in data set [4], in data set [7], in data set [8] and in [9] was 100% in each case. The “efficacy (laying of fertile eggs)” value in [5] and in data set [6] was 100% throughout.
For the compound `Cc1cc(C(F)(C(F)(F)F)C(F)(F)F)cc(Cl)c1-n1cc(-c2ccc(Cl)c(C(=O)NC3CC3)c2)cn1` [I-T3-63], the “logP^a)” value in [1] and in [1] (setting [14]) was 4.4 in each case. For the same compound, the efficacy in data set [2] (application rate 5 μg/cm2), in data set [3], in data set [10] (application rate 100 g/ha), in data set [11] (application rate 100 g/ha) and in data set [12] (application rate 100 g/ha) was 100% each time. In addition, the “efficacy (kill)” value in data set [4], in data set [7], in [8] and in data set [9] was 100% each time. Moreover, the “efficacy (laying of fertile eggs)” value in data set [5] and in data set [6] was 100% in each case.
For the compound `Cc1cc(C(F)(C(F)(F)F)C(F)(F)F)cc(C)c1-n1cc(-c2cnc(Cl)c(C(=O)N(C)C3CC3)c2)cn1` [I-T3-101], the “logP^a)” value in [1] (reversed-phase column (C18)) worked out at 4.4. Also, in data set [1] (setting [14]), the log partition coefficient (log P) is listed as 4.4. Moreover, the efficacy in [3] is 100%; in data set [13] (application rate 100 g/ha) it was 100%; in data set [10] (application rate 500 g/ha), 100%; in data set [11] (application rate 500 g/ha) it was 83%; in data set [12] (application rate 500 g/ha) it was 100%. Moreover, the “efficacy (kill)” value was found to be 95% in data set [4], 100% in [7], 100% in [8] and 100% in data set [9]. The “efficacy (laying of fertile eggs)” value in data set [5] and in [6] was 100% in each case.
Turning to `Cc1ncc(-c2cnn(-c3c(Cl)cc(C(F)(C(F)(F)F)C(F)(F)F)cc3C(F)(F)F)c2)cc1C(=O)N(C)C1(C#N)CC1` [I-T3-131], the “logP^a)” value in data set [1] (reversed-phase column (C18)) came out at 3.9. For the same compound, in data set [1] (setting [14]), the “log P” value came out at 3.9. Also, the efficacy in data set [3] is 100%; in data set [13] (application rate 100 g/ha) it was 90%; in [10] (application rate 100 g/ha) it was 100%; in data set [11] (application rate 100 g/ha), 100%; in [12] (application rate 100 g/ha), 100%. The “efficacy (kill)” value in [4], in data set [7], in data set [8] and in data set [9] was 100% each time. Further, the “efficacy (laying of fertile eggs)” value in data set [5] and in [6] was 100% each time.
Turning to `Cc1cc(C(F)(C(F)(F)F)C(F)(F)F)cc(C)c1-n1cc(-c2cnc(Cl)c(C(=O)N(C)C3(C#N)CC3)c2)cn1` [I-T3-103], the “logP^a)” value in data set [1] (reversed-phase column (C18)) turned out to be 4.3. The log partition coefficient (log P) in data set [1] (setting [14]) was determined as 4.3. Besides, the efficacy in [3] stood at 100%; in [13] (application rate 500 g/ha) it was 90%; in data set [10] (application rate 500 g/ha) it was 100%; in [11] (application rate 500 g/ha), 100%; in data set [12] (application rate 500 g/ha) it was 100%. In addition, the “efficacy (kill)” value in data set [4] is on record as 90%; in [7], 100%; in data set [8] it was 100%; in [9] it was 100%. Also, the “efficacy (laying of fertile eggs)” value in data set [5] and in [6] was 100% each time.
